# Key:
# Snake Plant = assay: Watering with D-ribose solution, blooming of Snake Plant; type: in vivo, Mother's-in-law Tongue/Snake Plant; details: had not bloomed in over 15 years, indoor plant; 5 grams of D-ribose to one gallon of water
# Description: (§1) Plants treated with a solution of D-ribose in this example included Orchids, Christmas Cactus, Palm, Mother's-in-law Tongue/Snake Plant, Rosemary, Bamboo, Pothos, Hibiscus, Jade, Purple Passion, Aloe vera, Schefflera, Cacti, and Norfolk Island Pine.
# (§2) The use of MIRACLE-GRO liquid plant food was stopped, then the use of a solution of D-ribose to treat the plants was started. Each week a fresh solution of D-ribose was made using 5 grams of D-ribose to one gallon of water.
# This is another example of plant typically regarded as a non-flowering type plant. […] It had not bloomed in over 15 years. While flowers on this plant are not unheard of, it is uncommon to bloom in the Minnesota climate and as an indoor plant.
# flowering plants = assay: Watering of house plants with D-ribose solution, observation of blooming; type: in vivo; details: 5 grams of D-ribose to one gallon of water, after MIRACLE-GRO was stopped
# Description: as §1, §2
# Specific observations are noted below. While all the plants were extremely healthy and grew exceptionally well, traditional flowering varieties performed amazingly well.
# Hibiscus = assay: Watering with D-ribose solution, blooming of Hibiscus; type: in vivo; details: indoors for the winter months; 5 grams of D-ribose to one gallon of water
# Description: as §1, §2
# This plant was taken inside in October for the winter months.
# Purple Waffle = assay: Growth of Purple Waffle plants over a 9 month period with weekly feeding; type: in vivo; details: 1× (1.5 mg/ml) or 2× (3 mg/ml) D-ribose weekly, versus control and MIRACLE-GRO fed plant
# Protocol: The growth of four plants was observed over a 9 month period. One plant was not fed (control), but watered weekly. One plant was fed MIRACLE-GRO liquid plant food weekly based on product instructions of feeding every time you water by squeezing 10-20 drops into 1 quart of water. One plant was fed 1× (1.5 mg/ml) D-ribose weekly. One plant was fed 2× (3 mg/ml) D-ribose weekly.
# Orchids = assay: Watering with D-ribose solution, blooming of orchids; type: in vivo; details: 5 grams of D-ribose to one gallon of water
# Description: as §1, §2
# The first subject was an orchid which had not bloomed in six plus years.
# Palm = assay: Watering with D-ribose solution, blooming of Palm; type: in vivo; details: plant had not bloomed in approximately fifteen years; 5 grams of D-ribose to one gallon of water
# Description: as §1, §2
# This is typically regarded as a non-flowering type of plant. This plant had not bloomed in approximately fifteen years.
# Christmas Cactus = assay: Watering with D-ribose solution, blooming of Christmas Cactus; type: in vivo; details: typically blooms only around Christmas and Easter; 5 grams of D-ribose to one gallon of water
# Description: as §1, §2
# This variety of plant typically only blooms around the Christmas and Easter holidays each year for a few weeks up to a month or so, then it stops blooming.
compound,measurement,setting,value
O=C[C@H](O)[C@H](O)[C@H](O)CO [D-ribose],blooming / flowering growth,Snake Plant,grew unusual growths that appeared to be some type of flowering appendage
same,blooming observed in treated plants,flowering plants,Sustained blooming in many of the flowering plants
same,blooming,Hibiscus,continuously bloomed
same,branching,Purple Waffle,increased branching compared to both the control and the MIRACLE-GRO fed plant
same,"blooming, first orchid",Orchids; orchid which had not bloomed in six plus years,sparked two new stems full of blooms
same,"blooming, second orchid",Orchids; orchid which had not bloomed in three plus years,showed the same results as subject one
same,blooming / flowering growth,Palm,grew an unusual type of growth that appeared to be a flowering/seed mechanism on two different stems
same,blooming,Christmas Cactus,started to bloom early and sustained an abundance of continued blooms

# — US20140256555A1, “METHODS FOR TREATING FLOWERING PLANTS WITH RIBOSE” (RiboCor, Inc., priority 2013, published 2014)
